# Publication PMC4076294 (Journal of the American Chemical Society, 2014)
# Where “and” joins values, the source holds several entries; their conditions need not be identical. Equal values may be shown once.
# What was measured:
# A2780 = assay: MTT assay; type: cell-based, human; conditions: read-out: IC50 at 48 h; A2780, 48 h
# [1] = system: A2780 ovarian cancer cells; assay: LIVE/DEAD cell viability assay; type: cell-based, human; conditions: 10 μM, 48 h
# [2] = system: nuclear DNA of A2780 cells; assay: DNA platination experiment; type: cell-based, human; conditions: 5 μM, 5 h, then 16 h in fresh media
# [3] = comparison values; cited from earlier work
Structure (SMILES),IC50 (A2780) [µM],LIVE/DEAD cell assay outcome [1],extent of DNA platination [2],half-life in blood (t1/2) [3]
N.N.[Cl][Pt][Cl] [cisplatin],6.35 ± 1.39,mostly survived,36.4 ± 5.5 Pt adducts/10^6 nucleotides,–
CC(=O)[O][Pt]([NH2])([Cl])([Cl])([NH]C1CCCCC1)[O]C(C)=O [satraplatin],–,–,–,6.3 min and ~6 min
